Measured values taken from patent US11203600B2 (Denali Therapeutics Inc., priority 2017, dated 2021).

What follows are compounds tested against GST-hRIPK1 (8-327) (Homo sapiens (Human), UniProt Q13546) (assay: Fluorescent Polarization Binding (FP Binding) assay, RIPK1). Settings: 10 nM GST-hRIPK1 (8-327), 5 nM fluorescent-labeled ligand, RT, 30 min, mean of at least two independent experiments.
Procedure: Fluorescent Polarization Binding (FP Binding) assay (Berger S. B. et al. (2015) Cell Death Discovery, 1: 15009; Maki J. L. et al. (2012) Anal Biochem., 427(2): 164-174) was performed in polystyrene low volume 384-well black plate, at RT in a final volume of 10.1 μl/well using 10 nM of GST-hRIPK1 (8-327) enzyme and 5 nM of fluorescent-labeled ligand (14-(2-{[3-({2-{[4-(cyanomethyl)phenyl]amino]-6-[(5-cyclopropyl-1H-pyrazol-3-yl)amino]-4-pyrimidinyl}amino) propyl}amino}-2-oxoethyl)-16,16,18,18-tetramethyl-6,7,7a,8a,9,10,16,18-octahydrobenzo [2″,3″]indolizino[8″,7″:5′,6′]pyrano [3′,2′:3,4]pyrido[1,2-a]indo1-5-ium-2-sulfonate.
Test compounds were serially diluted in DMSO at 100 fold final concentrations in the assay (1% DMSO final). In each well of a 384-well Plate were dispensed 0.1 μL of compound solution (or DMSO for controls) followed by 5 μL of GST-hRIPK1 (8-327) at twice the final concentrations in assay buffer (50 mM HEPES pH 7.5, 10 mM NaCl, 50 mM MgCl2, 0.02% CHAPS, 0.5 mM DTT and 0.01% Pluronic F127). For negative control the enzyme addition was replaced by assay buffer only.
After addition of 5 μL of fluorescentlabeled ligand at twice the final concentrations in assay buffer, the plate was incubated at RT for […]. At the end, the binding was measured as FP value with the Envision (PerkinElmer) plate reader using filter for an excitation λ=531 nm FP and an emission λ=595 nm FP (S & P-pol). GST-hRIPK1 (8-327) enzyme was produced via Baculovirus expression.
Test compound inhibition was expressed as percent inhibition of internal assay controls. For concentration response curves, normalized data is fit and IC50 determined using XL-fit (IDBS) for Excel. The IC50 values were averaged to determine a mean value, for a minimum of two independent experiments. Results are shown in Table 2 (RIPK1 IC50) values: +++=0.1 nM<IC50<100 nM; ++=100 nM<IC50<1 μM; +=1 μM<IC50).

Chain of GST-hRIPK1 (8-327) (Q13546 8-327): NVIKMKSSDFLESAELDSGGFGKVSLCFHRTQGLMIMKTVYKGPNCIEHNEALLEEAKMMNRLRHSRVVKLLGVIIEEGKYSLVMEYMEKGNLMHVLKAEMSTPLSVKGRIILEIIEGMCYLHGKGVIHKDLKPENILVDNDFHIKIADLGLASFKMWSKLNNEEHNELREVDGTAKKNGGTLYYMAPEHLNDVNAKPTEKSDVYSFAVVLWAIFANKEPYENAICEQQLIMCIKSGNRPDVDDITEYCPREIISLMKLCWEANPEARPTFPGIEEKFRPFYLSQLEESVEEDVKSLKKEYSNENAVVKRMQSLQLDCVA

Structure (SMILES) | IC50 [µM]
CCC(C)(C)C(=O)N1CCOc2ccc(F)cc2C1 [Example 32, 1-(7-fluoro-2,3,4,5-tetrahydro-1,4-benzoxazepin-4-yl)-2,2-dimethylbutan-1-one] | 0.0001 to 0.1
CC(C)(C(=O)N1CCOc2ccc(F)cc2C1)C(F)F [Example 33, 3,3-difluoro-1-(7-fluoro-2,3,4,5-tetrahydro-1,4-benzoxazepin-4-yl)-2,2-dimethylpropan-1-one] | 0.0001 to 0.1
CC(C)(C(=O)N1CCOc2ncccc2C1)C(F)F [Example 34, 1-(2,3-dihydropyrido[3,2-f][1,4]oxazepin-4(5H)-yl)-3,3-difluoro-2,2-dimethylpropan-1-one] | > 1
CC(C)(C(=O)N1CCOc2ccncc2C1)C(F)F [Example 35, 1-(2,3-dihydropyrido[3,4-f][1,4]oxazepin-4(5H)-yl)-3,3-difluoro-2,2-dimethylpropan-1-one] | 0.1 to 1
CC1CN(C(=O)C(C)(C)C(F)F)Cc2ccccc2O1 (stereo not shown) [Example 36, 3,3-difluoro-2,2-dimethyl-1-(2-methyl-2,3-dihydrobenzo[f][1,4]oxazepin-4(5H)-yl)propan-1-one] | > 1
CC(C)(C(=O)N1CCOc2c(Br)cc(F)cc2C1)C(F)F [Example 37, 1-(9-bromo-7-fluoro-3,5-dihydro-2H-1,4-benzoxazepin-4-yl)-3,3-difluoro-2,2-dimethyl-propan-1-one] | 0.1 to 1
CC(C)(C(=O)N1Cc2ccccc2CCO1)C(F)F [Example 38, 3,3-difluoro-2,2-dimethyl-1-(1,2,4,5-tetrahydro-3,2-benzoxazepin-2-yl)propan-1-one] | > 1
O=C(C1CCN(c2ncc(F)cn2)CC1)N1Cc2ccccc2CCO1 [Example 39, 2-[1-(5-fluoropyrimidin-2-yl)piperidine-4-carbonyl]-1,2,4,5-tetrahydro-3,2-benzoxazepine] | 0.1 to 1
CC1(C(=O)N2CCOc3c(C#N)cncc3C2)CCN(c2ncc(F)cn2)CC1 [Example 40, 4-[1-(5-fluoropyrimidin-2-yl)-4-methyl-piperidine-4-carbonyl]-3,5-dihydro-2H-pyrido[3,4-f][1,4]oxazepine-9-carbonitrile] | 0.0001 to 0.1
CC1(C(=O)N2CCOc3c(C#N)cncc3C2)CCOCC1 [Example 41, 4-(4-methyltetrahydropyran-4-carbonyl)-3,5-dihydro-2H-pyrido[3,4-f][1,4]oxazepine-9-carbonitrile] | 0.1 to 1
CC1(C(=O)N2CCOc3c(C#N)cncc3C2)CCOC1 (stereo not shown) [Example 42, 4-(3-methyltetrahydrofuran-3-carbonyl)-3,5-dihydro-2H-pyrido[3,4-f][1,4]oxazepine-9-carbonitrile] | 0.1 to 1
COC(C)(C)C(=O)N1CCOc2c(C#N)cncc2C1 [Example 43, 4-(2-methoxy-2-methyl-propanoyl)-3,5-dihydro-2H-pyrido[3,4-f][1,4]oxazepine-9-carbonitrile] | 0.1 to 1
N#Cc1cncc2c1OCCN(C(=O)C13CC(C1)C3)C2 [Example 44, 4-(bicyclo[1.1.1]pentane-3-carbonyl)-3,5-dihydro-2H-pyrido[3,4-f][1,4]oxazepine-9-carbonitrile] | > 1
CC(C)(C(=O)N1CCOc2c(C#N)cncc2C1)C(F)(F)F [Example 45, 4-(3,3,3-trifluoro-2,2-dimethyl-propanoyl)-3,5-dihydro-2H-pyrido[3,4-f][1,4]oxazepine-9-carbonitrile] | 0.0001 to 0.1
N#Cc1cncc2c1OCCN(C(=O)C1(C3CC3)CC1)C2 [Example 46, 4-(1-cyclopropylcyclopropanecarbonyl)-3,5-dihydro-2H-pyrido[3,4-f][1,4]oxazepine-9-carbonitrile] | 0.1 to 1
CC(C)(CC(F)(F)F)C(=O)N1CCOc2c(C#N)cncc2C1 [Example 47, 4-(4,4,4-trifluoro-2,2-dimethyl-butanoyl)-3,5-dihydro-2H-pyrido[3,4-f][1,4]oxazepine-9-carbonitrile] | 0.0001 to 0.1
N#Cc1cncc2c1OCCN(C(=O)C1(C(F)(F)F)CC1)C2 [Example 48, 4-[1-(trifluoromethyl)cyclopropanecarbonyl]-3,5-dihydro-2H-pyrido[3,4-f][1,4]oxazepine-9-carbonitrile] | 0.1 to 1

Structure (SMILES) | IC50 [µM]
N#Cc1cncc2c1OCCN(C(=O)C1(C(F)F)CCC1)C2 [Example 49, 4-[1-(difluoromethyl)cyclobutanecarbonyl]-3,5-dihydro-2H-pyrido[3,4-f][1,4]oxazepine-9-carbonitrile] | 0.0001 to 0.1
CC1(C(=O)N2CCOc3c(C#N)cncc3C2)CC1(F)F (stereo not shown) [Example 50, 4-(2,2-difluoro-1-methyl-cyclopropanecarbonyl)-3,5-dihydro-2H-pyrido[3,4-f][1,4]oxazepine-9-carbonitrile] | 0.1 to 1
CC(C)(COC(F)(F)F)C(=O)N1CCOc2c(C#N)cncc2C1 [Example 51, 4-[2,2-dimethyl-3-(trifluoromethoxy)propanoyl]-3,5-dihydro-2H-pyrido[3,4-f][1,4]oxazepine-9-carbonitrile] | 0.0001 to 0.1
C[C@@H]1COc2c(C#N)cncc2CN1C(=O)C(C)(C)C(F)F [Example 52, (3R)-4-(3,3-difluoro-2,2-dimethyl-propanoyl)-3-methyl-3,5-dihydro-2H-pyrido[3,4-f][1,4]oxazepine-9-carbonitrile] | 0.0001 to 0.1
N#Cc1cncc2c1OCCN(C(=O)C1(C(F)(F)F)CCC1)C2 [Example 53, 4-[1-(trifluoromethyl)cyclobutanecarbonyl]-3,5-dihydro-2H-pyrido[3,4-f][1,4]oxazepine-9-carbonitrile] | 0.1 to 1
CCC(C)(C)C(=O)N1CCOc2c(C#N)cncc2C1 [Example 54, 4-(2,2-dimethylbutanoyl)-3,5-dihydro-2H-pyrido[3,4-f][1,4]oxazepine-9-carbonitrile] | 0.0001 to 0.1
CC(C)(C(=O)N1CCOc2c(F)cncc2C1)C(F)F [Example 55, 3,3-difluoro-1-(9-fluoro-3,5-dihydro-2H-pyrido[3,4-f][1,4]oxazepin-4-yl)-2,2-dimethyl-propan-1-one] | 0.1 to 1
CC(C(=O)N1CCOc2c(C#N)cncc2C1)(C(F)F)C1CC1 (stereo not shown) [Example 56, 4-(2-cyclopropyl-3,3-difluoro-2-methyl-propanoyl)-3,5-dihydro-2H-pyrido[3,4-f][1,4]oxazepine-9-carbonitrile] | 0.0001 to 0.1
CCC(C)(C(=O)N1CCOc2c(C#N)cncc2C1)C(F)F (stereo not shown) [Example 57, 4-(2-(difluoromethyl)-2-methylbutanoyl)-2,3,4,5-tetrahydropyrido[3,4-f][1,4]oxazepine-9-carbonitrile] | 0.0001 to 0.1
CC(C)(CC1CC1)C(=O)N1CCOc2c(C#N)cncc2C1 [Example 58, 4-(3-cyclopropyl-2,2-dimethyl-propanoyl)-3,5-dihydro-2H-pyrido[3,4-f][1,4]oxazepine-9-carbonitrile] | 0.1 to 1
CC(C)(C(=O)N1CCOc2c(cnc(Cl)c2C#N)C1)C(F)F [Example 59, 8-chloro-4-(3,3-difluoro-2,2-dimethyl-propanoyl)-3,5-dihydro-2H-pyrido[3,4-f][1,4]oxazepine-9-carbonitrile] | 0.1 to 1
CC(C)(CCF)C(=O)N1CCOc2c(C#N)cncc2C1 [Example 60, 4-(4-fluoro-2,2-dimethyl-butanoyl)-3,5-dihydro-2H-pyrido[3,4-f][1,4]oxazepine-9-carbonitrile] | 0.1 to 1
CC(C)(C(=O)N1CCOc2c(Cl)cncc2C1)C(F)F [Example 61, 1-(9-chloro-3,5-dihydro-2H-pyrido[3,4-f][1,4]oxazepin-4-yl)-3,3-difluoro-2,2-dimethyl-propan-1-one] | 0.1 to 1
Cc1cncc2c1OCCN(C(=O)C(C)(C)C(F)F)C2 [Example 62, 3,3-difluoro-2,2-dimethyl-1-(9-methyl-3,5-dihydro-2H-pyrido[3,4-f][1,4]oxazepin-4-yl)propan-1-one] | > 1
CCC1(C(=O)N2CCOc3c(C#N)cncc3C2)CC1 [Example 63, 4-(1-ethylcyclopropanecarbonyl)-3,5-dihydro-2H-pyrido[3,4-f][1,4]oxazepine-9-carbonitrile] | 0.1 to 1
CCC1(C(=O)N2CCOc3c(C#N)cncc3C2)CCC1 [Example 64, 4-(1-ethylcyclobutanecarbonyl)-3,5-dihydro-2H-pyrido[3,4-f][1,4]oxazepine-9-carbonitrile] | 0.1 to 1
C[C@@H]1C[C@]1(C)C(=O)N1CCOc2c(C#N)cncc2C1 [Example 65, 4-[(1S,2R)-1,2-dimethylcyclopropanecarbonyl]-3,5-dihydro-2H-pyrido[3,4-f][1,4]oxazepine-9-carbonitrile] | 0.1 to 1
